The record followed here is paper PMC9730799, “Elucidation of the interactome of the sucrose transporter StSUT4: sucrose transport is connected to ethylene and calcium signalling” (Journal of Experimental Botany, 2022).

The test concerns the target T1, StSUT4 (Solanum tuberosum, UniProt Q9FV92).
T1 construct: gene SUT4; StSUT4 cDNA in pDR196, expressed in yeast cells
T1 sequence (Q9FV92 1-500): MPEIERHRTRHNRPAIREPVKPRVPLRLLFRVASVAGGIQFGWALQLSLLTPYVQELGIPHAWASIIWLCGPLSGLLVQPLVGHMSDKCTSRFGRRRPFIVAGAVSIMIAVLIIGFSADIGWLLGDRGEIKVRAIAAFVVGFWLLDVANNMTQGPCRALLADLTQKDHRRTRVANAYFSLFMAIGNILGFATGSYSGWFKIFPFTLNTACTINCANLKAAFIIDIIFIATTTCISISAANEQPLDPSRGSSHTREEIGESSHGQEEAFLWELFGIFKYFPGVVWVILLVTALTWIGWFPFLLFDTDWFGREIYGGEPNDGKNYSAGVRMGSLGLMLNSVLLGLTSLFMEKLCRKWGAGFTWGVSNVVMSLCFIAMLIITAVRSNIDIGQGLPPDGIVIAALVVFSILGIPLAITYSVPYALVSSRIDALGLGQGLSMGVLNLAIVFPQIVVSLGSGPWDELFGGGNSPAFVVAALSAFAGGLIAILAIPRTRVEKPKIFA
Nature of the test: competition with esculin uptake in yeast, fluorescence. Format: cell-based. To be noted: 8 mM esculin, pH 5.0, 20 mM unlabelled sucrose.

Structures are written as SMILES.

Turning to `OC[C@H]1O[C@@](CO)(O[C@H]2O[C@H](CO)[C@@H](O)[C@H](O)[C@H]2O)[C@@H](O)[C@@H]1O` [sucrose], the “% inhibition at 20 mM” value is given as “~ almost 50%”.
